Test results as given in patent US9340559B2, “Proteasome inhibitor delanzomib for use in the treatment of lupus” (Cephalon, Inc., priority 2011, dated 2016).

How the values were obtained:
NZM mice [1] = assay: Survival, NZM lupus nephritis model, ip dosing (Example 2); assay type: in vivo, mouse
MRL/lpr mice [2] = assay: Spleen plasma cells by flow cytometry, MRL/lpr mice
NZM mice [3] = assay: Body weight progression, NZM mice (Example 2); assay type: in vivo, mouse
NZM mice [4] = assay: Renal histopathology scoring (kidney IC-GN), NZM mice (Example 2); assay type: in vivo, mouse
Description: For histological analyses, the left kidney from each animal is removed and fixed in 10% buffered neutral formalin (EMD) for 48 hours on an orbital rocker at 25° C., then washed overnight with running dH2O and stored in 70% ethanol at 4° C. until ready to be processed. Kidney stains used for histological analyses included hematoxylin and eosin (H&E), Periodic Acid Schiff (PAS) and Trichrome stains (Wistar Institute, Philadelphia, Pa.). All 3 stained sections are used by the pathologist for scoring purposes. All histological scoring is performed blinded and by an independent board certified veterinary medical pathologist (Julie Engiles, VMD, DACVP). Multiple stains are used to determine score values. Images in FIG. 39 show worst affected area of section selected blindly by the pathologist.
Kidney IC-GN Scoring Method (Smith, Dong et al. 2007):
1. Glomerular cellularity—Score 1-5: Null, low, moderate, high, severe
2. Glomerular necrosis—Score 1-5: Null, low, moderate, high, severe
3. Glomerulosclerosis—Score 1-5: Null, low, moderate, high, severe
4. Interstitial infiltration—Score 1-5: Null, low, moderate, high, severe
5. Tubular atrophy—Score 1-5: Null, low, moderate, high, severe
6. Interstitial fibrosis—Score 1-5: Null, low, moderate, high, severe
7. Vasculitis—Score 1-5: Null, low, moderate, high, severe
Specific Pathologist Definitions: • Necrosis is defined by the presence of nuclear debris/pyknosis within the glomerular tuft indicative of “necrosis.” In many samples, this is a very mild, rare finding within only a very few segments of the glomerular tuft. Also consider effacement of the glomerular tuft by PAS positive, Trichrome negative material necrosis. • Glomerular sclerosis is defined by increased fibroplasia or fibrosis within the glomerular tuft or capsule. […] Most of the vascular changes are mild and could be considered “arteriosclerosis” characterized by proliferation of the smooth muscle cells, and hyalinization of the extracellular matrix. This change may reflect hypertension secondary to glomerular pathology. In very few animals is there overt “vasculitis.” Most inflammatory changes are within the walls of the blood vessels, with little to no damage to the endothelium, and no overt hemorrhage/fibrin leakage. Many also have perivascular rims of fibroblasts.

MRL/lpr mice [5] = assay: Urinalysis: urine leukocytes (leukouria), Uristix, MRL/lpr mice; assay type: in vivo, mouse
Description: Urine samples are acid precipitated for total protein recovery and analysis. Samples for which enough urine remained are used for Uristix® leukouria analysis. Briefly, a standard protein solution is prepared from normal mouse sera and is used as a standard for mouse urinary protein assay by turbidity. Standard preparation is as follows: 0, 5, 10, 15, 20, 30, 40, and 50 μL of a 4 mg/mL mouse sera standard protein solution as provided in the kit are added in duplicate into two columns. PBS is added to individual wells to adjust the final volume to 50 μL. For urine sample preparation, urine samples are centrifuged at 9880×g for 3 minutes using a tabletop micro-centrifuge. Urine supernatant (1-50 μL) is added in duplicate. PBS is added to adjust the volume to 50 μL total. For the turbidity assay: 25 μL of 0.1 N HCl is added into blank columns and 250 μL of 3% sulfosalicyclic acid into the test columns. The microplate is incubated for 10 minutes at RT and plates are read using an ELISA reader with single beam at 450 nm. For the Uristix® strip assay, strips are laid out and labeled. Twenty microliters of urine are placed onto each test strip square and incubated for at least 30 seconds before the result is recorded. For all total urine analysis plate-based assays, values below the limit of detection set by the lowest point along the standard or set by the manufacturer are considered out of range and are not estimated, but assumed the lowest point along the standard curve for that particular assay.

CC(C)C[C@H](NC(=O)[C@H](Cc1ccccc1)NC(=O)c1cnccn1)B(O)O [bortezomib, reference compound]
EOS survival, percent live mice from original number (NZM mice [1]; G3 0.3 mg/kg ip, 1× wk): 58% | EOS survival, percent live mice from original number (NZM mice [1]; G4 0.3 mg/kg ip, 2× wk): 75% | mice still alive at day 56 (NZM mice [1]; both treatment groups of the substance): 75% | EOS plasma cells, percent change vs vehicle (MRL/lpr mice [2]; G4: 0.5 mg/kg iv, 1× wk): −67% | EOS plasma cells, percent change vs vehicle (MRL/lpr mice [2]; G5: 0.3 mg/kg iv, 2× wk): −33% | spleen plasma cells decrease vs vehicle (MRL/lpr mice [2]; Group 4): 66% | spleen plasma cells decrease vs vehicle (MRL/lpr mice [2]; Group 5): 33% | Body mass AUC, percent change vs vehicle (NZM mice [3]; G3 0.3 mg/kg ip, 1× wk): +13% | Body mass AUC, percent change vs vehicle (NZM mice [3]; G4 0.3 mg/kg ip, 2× wk): +11% | Kidney glomerular cellularity, percent change vs vehicle (NZM mice [4]; G3 0.3 mg/kg ip, 1× wk): −12% | Kidney glomerular necrosis, percent change vs vehicle (NZM mice [4]; G3 0.3 mg/kg ip, 1× wk): 18% | Kidney glomerulosclerosis, percent change vs vehicle (NZM mice [4]; G3 0.3 mg/kg ip, 1× wk): 8% | Kidney interstitial fibrosis, percent change vs vehicle (NZM mice [4]; G3 0.3 mg/kg ip, 1× wk): −5% | Kidney interstitial infiltration, percent change vs vehicle (NZM mice [4]; G3 0.3 mg/kg ip, 1× wk): −15% | Kidney tubular atrophy, percent change vs vehicle (NZM mice [4]; G3 0.3 mg/kg ip, 1× wk): −6% | Kidney vasculitis, percent change vs vehicle (NZM mice [4]; G3 0.3 mg/kg ip, 1× wk): −21% | p, interstitial infiltration (II) vs G7 Vehicle (NZM mice [4]; G4 0.3 mg/kg 2× wk): p < 0.05 | Kidney glomerular cellularity, percent change vs vehicle (NZM mice [4]; G4 0.3 mg/kg ip, 2× wk): −21% | Kidney glomerular necrosis, percent change vs vehicle (NZM mice [4]; G4 0.3 mg/kg ip, 2× wk): 3% | Kidney glomerulosclerosis, percent change vs vehicle (NZM mice [4]; G4 0.3 mg/kg ip, 2× wk): −29% | Kidney interstitial fibrosis, percent change vs vehicle (NZM mice [4]; G4 0.3 mg/kg ip, 2× wk): −22% | Kidney interstitial infiltration, percent change vs vehicle (NZM mice [4]; G4 0.3 mg/kg ip, 2× wk): −44% | Kidney tubular atrophy, percent change vs vehicle (NZM mice [4]; G4 0.3 mg/kg ip, 2× wk): −32% | Kidney vasculitis, percent change vs vehicle (NZM mice [4]; G4 0.3 mg/kg ip, 2× wk): −14% | interstitial infiltration reduction vs vehicle (NZM mice [4]; bortezomib treatment group (twice weekly dose)): 44% | decrease in renal histopathology score over several parameters vs vehicle (NZM mice [4]; mouse, in vivo): 6-14% | Urine AUC leukocytes, percent change vs vehicle (MRL/lpr mice [5]; G4: 0.5 mg/kg iv, 1× wk): −78% | Urine AUC leukocytes, percent change vs vehicle (MRL/lpr mice [5]; G5: 0.3 mg/kg iv, 2× wk): −70%

C[C@@H]1C[C@H]2[C@@H]3CCC4=CC(=O)C=C[C@]4(C)[C@@]3(F)[C@@H](O)C[C@]2(C)[C@@]1(O)C(=O)CO [dexamethasone, Dexamethasone, reference compound]
EOS survival, percent live mice from original number (NZM mice [1]; G5 1.5 mg/kg ip, 3× wk): 10% | EOS plasma cells, percent change vs vehicle (MRL/lpr mice [2]; G6: 1.5 mg/kg ip, 3× wk): +25% | Body mass AUC, percent change vs vehicle (NZM mice [3]; G5 1.5 mg/kg ip, 3× wk): −1% | Kidney glomerular cellularity, percent change vs vehicle (NZM mice [4]; G5 1.5 mg/kg ip, 3× wk): −38% | Kidney glomerular necrosis, percent change vs vehicle (NZM mice [4]; G5 1.5 mg/kg ip, 3× wk): −16% | Kidney glomerulosclerosis, percent change vs vehicle (NZM mice [4]; G5 1.5 mg/kg ip, 3× wk): −17% | Kidney interstitial fibrosis, percent change vs vehicle (NZM mice [4]; G5 1.5 mg/kg ip, 3× wk): −36% | Kidney interstitial infiltration, percent change vs vehicle (NZM mice [4]; G5 1.5 mg/kg ip, 3× wk): −36% | Kidney tubular atrophy, percent change vs vehicle (NZM mice [4]; G5 1.5 mg/kg ip, 3× wk): −25% | Kidney vasculitis, percent change vs vehicle (NZM mice [4]; G5 1.5 mg/kg ip, 3× wk): −40% | p, glomerular cellularity (GC) vs G8 NZW/LacJ non-diseased (NZM mice [4]; G6 1.5 mg/kg 1× wk): p < 0.01 | p, glomerular necrosis (GN) vs G5 CTX 50 mg/kg 1× wk (NZM mice [4]; G6 1.5 mg/kg 1× wk): p < 0.05 | p, glomerular necrosis (GN) vs G8 NZW/LacJ non-diseased (NZM mice [4]; G6 1.5 mg/kg 1× wk): p < 0.01 | p, glomerular necrosis (GN) vs G9 NZM diseased baseline (NZM mice [4]; G6 1.5 mg/kg 1× wk): p < 0.05 | p, glomerulosclerosis (GS) vs G4 Bortezomib 0.3 mg/kg 2× wk (NZM mice [4]; G6 1.5 mg/kg 1× wk): p < 0.001 | p, glomerulosclerosis (GS) vs G5 CTX 50 mg/kg 1× wk (NZM mice [4]; G6 1.5 mg/kg 1× wk): p < 0.05 | p, glomerulosclerosis (GS) vs G8 NZW/LacJ non-diseased (NZM mice [4]; G6 1.5 mg/kg 1× wk): p < 0.001 | p, glomerulosclerosis (GS) vs G9 NZM diseased baseline (NZM mice [4]; G6 1.5 mg/kg 1× wk): p < 0.05 | p, interstitial fibrosis (IF) vs G5 CTX 50 mg/kg 1× wk (NZM mice [4]; G6 1.5 mg/kg 1× wk): p < 0.05 | p, interstitial fibrosis (IF) vs G8 NZW/LacJ non-diseased (NZM mice [4]; G6 1.5 mg/kg 1× wk): p < 0.05 | p, interstitial infiltration (II) vs G4 Bortezomib 0.3 mg/kg 2× wk (NZM mice [4]; G6 1.5 mg/kg 1× wk): p < 0.01 | p, interstitial infiltration (II) vs G5 CTX 50 mg/kg 1× wk (NZM mice [4]; G6 1.5 mg/kg 1× wk): p < 0.05 | p, interstitial infiltration (II) vs G8 NZW/LacJ non-diseased (NZM mice [4]; G6 1.5 mg/kg 1× wk): p < 0.05 | p, tubular atrophy (TA) vs G4 Bortezomib 0.3 mg/kg 2× wk (NZM mice [4]; G6 1.5 mg/kg 1× wk): p < 0.01 | p, tubular atrophy (TA) vs G5 CTX 50 mg/kg 1× wk (NZM mice [4]; G6 1.5 mg/kg 1× wk): p < 0.05 | p, tubular atrophy (TA) vs G8 NZW/LacJ non-diseased (NZM mice [4]; G6 1.5 mg/kg 1× wk): p < 0.01 | Urine AUC leukocytes, percent change vs vehicle (MRL/lpr mice [5]; G6: 1.5 mg/kg ip, 3× wk): −100%
